How the values were obtained:
[1] = tested on: lambsquarters; experiment: Test C preemergence; format: in vivo, Chenopodium album; settings: preemergence
Procedure, shortened: (§1)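 Greenhouse pot test: preemergence application onto freshly seeded loam/sand mix, postemergence application onto seedlings (1–4 leaves, 2–18 cm) in peat-vermiculite substrate. Responses scored visually 13 to 15 days later relative to controls, where 0 means no effect and 100 means complete control; a dash indicates no result.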

[2] = tested on: blackgrass; experiment: Test C postemergence; format: in vivo, Alopecurus myosuroides
Procedure, shortened: as §1

[3] = tested on: ryegrass, Italian; experiment: Test C postemergence; format: in vivo, Lolium multiflorum; settings: postemergence
Procedure, shortened: as §1

[4] = tested on: wheat; experiment: Test C postemergence; format: in vivo, Triticum aestivum; settings: postemergence, 250 g ai/ha; scale 0 to 100 (0 no effect, 100 complete control)
Procedure, shortened: as §1

[5] = tested on: galium; experiment: Test C postemergence; format: in vivo, Galium aparine
Procedure, shortened: as §1

[6] = tested on: corn; experiment: Test C postemergence; format: in vivo, Zea mays
Procedure, shortened: as §1

[7] = tested on: foxtail, giant; experiment: Test C postemergence; format: in vivo, Setaria faberii
Procedure, shortened: as §1

[8] = tested on: johnsongrass; experiment: Test C postemergence; format: in vivo, Sorghum halepense
Procedure, shortened: as §1

[9] = tested on: lambsquarters; experiment: Test C postemergence; format: in vivo, Chenopodium album
Procedure, shortened: as §1

[10] = tested on: morningglory; experiment: Test C postemergence; format: in vivo, Ipomoea coccinea
Procedure, shortened: as §1

[11] = tested on: nutsedge, yellow; experiment: Test C postemergence; format: in vivo, Cyperus esculentus
Procedure, shortened: as §1

[12] = tested on: pigweed; experiment: Test C postemergence; format: in vivo, Amaranthus retroflexus; settings: postemergence
Procedure, shortened: as §1

[13] = tested on: soybean; experiment: Test C postemergence; format: in vivo, Glycine max; settings: postemergence
Procedure, shortened: as §1

[14] = tested on: oilseed rape; experiment: Test C postemergence; format: in vivo, Brassica napus; settings: postemergence
Procedure, shortened: as §1

[15] = tested on: waterhemp; experiment: Test C postemergence; format: in vivo, Amaranthus rudis; settings: postemergence, 250 g ai/ha; scale 0 to 100 (0 no effect, 100 complete control)
Procedure, shortened: as §1

[16] = tested on: kochia; experiment: Test C postemergence; format: in vivo, Kochia scoparia
Procedure, shortened: as §1

[17] = tested on: velvetleaf; experiment: Test C postemergence; format: in vivo, Abutilon theophrasti; settings: postemergence, 250 g ai/ha; scale 0 to 100 (0 no effect, 100 complete control)
Procedure, shortened: as §1

[18] = tested on: chickweed; experiment: Test C postemergence; format: in vivo, Stellaria media
Procedure, shortened: as §1

[19] = Postemergence, 31 g ai/ha, visually evaluated after 13 to 15 days
[20] = postemergence, 62 g ai/ha, scale 0 to 100
[21] = postemergence, 250 g ai/ha, scale 0 to 100 (0 no effect, 100 complete control)
[22] = postemergence, 125 g ai/ha, scale 0 to 100, 0 no effect, 100 complete control
[23] = 250 g ai/ha, scale 0 to 100 (0 no effect, 100 complete control)
[24] = 125 g ai/ha, scale 0 to 100, 0 no effect, 100 complete control

CCc1cc(C(=O)NC2CC2)nn1Cc1ccnc(OCC(F)(F)F)c1 [Compound 200]
Lambsquarters plant response rating ([1]; 31 g ai/ha, visual rating, scale 0 to 100 (0 no effect, 100 complete control), 13 to 15 days): 75
Lambsquarters plant response rating ([1]; 62 g ai/ha, scale 0 to 100 (0 no effect, 100 complete control), 13 to 15 days): 100
Plant response rating, Lambsquarters ([1]; 125 g ai/ha, 13 to 15 days, scale 0 to 100, 0 = no effect, 100 = complete control): 100
Lambsquarters plant response rating ([1]; 250 g ai/ha, scale 0 to 100, 0 is no effect, 100 is complete control): 100
Plant response rating (scale of 0 to 100 where 0 is no effect and 100 is complete control), Blackgrass [2, 19]: 5
Blackgrass plant response rating [2, 20]: 10
Plant response rating, Blackgrass [2, 21]: 15
Plant response rating, Blackgrass [2, 22]: 15
Plant response rating, Ryegrass, Italian [3, 23]: 15
Plant response rating, Ryegrass, Italian [3, 24]: 15
Plant response rating, Wheat [4]: 10
Plant response rating (scale of 0 to 100 where 0 is no effect and 100 is complete control), Galium [5, 19]: 50
Galium plant response rating [5, 20]: 50
Plant response rating, Galium [5, 21]: 75
Plant response rating, Galium [5, 22]: 75
Plant response rating (scale of 0 to 100 where 0 is no effect and 100 is complete control), Corn [6, 19]: 5
Corn plant response rating [6, 20]: 5
Plant response rating, Corn [6, 21]: 20
Plant response rating, Corn [6, 22]: 10
Plant response rating (scale of 0 to 100 where 0 is no effect and 100 is complete control), Foxtail, Giant [7, 19]: 5
Foxtail, Giant plant response rating [7, 20]: 10
Plant response rating, Foxtail, Giant [7, 21]: 15
Plant response rating, Foxtail, Giant [7, 22]: 15
Plant response rating (scale of 0 to 100 where 0 is no effect and 100 is complete control), Johnsongrass [8, 19]: 10
Johnsongrass plant response rating [8, 20]: 10
Plant response rating, Johnsongrass [8, 21]: 20
Plant response rating, Johnsongrass [8, 22]: 10
Plant response rating (scale of 0 to 100 where 0 is no effect and 100 is complete control), Lambsquarters [9, 19]: 55
Lambsquarters plant response rating [9, 20]: 65
Plant response rating, Lambsquarters [9, 21]: 95
Plant response rating, Lambsquarters [9, 22]: 65
Plant response rating (scale of 0 to 100 where 0 is no effect and 100 is complete control), Morningglory [10, 19]: 65
Morningglory plant response rating [10, 20]: 65
Plant response rating, Morningglory [10, 21]: 75
Plant response rating, Morningglory [10, 22]: 75
Plant response rating (scale of 0 to 100 where 0 is no effect and 100 is complete control), Nutsedge, Yellow [11, 19]: 0
Nutsedge, Yellow plant response rating [11, 20]: 0
Plant response rating, Nutsedge, Yellow [11, 21]: 10
Plant response rating, Nutsedge, Yellow [11, 22]: 5
Pigweed plant response rating ([12]; 62 g ai/ha, scale 0 to 100): 60
Plant response rating, Pigweed [12, 23]: 80
Plant response rating, Pigweed [12, 24]: 75
Plant response rating, Soybean [13, 23]: 90
Soybean plant response rating [13, 24]: 90
Oilseed Rape plant response rating ([14]; 62 g ai/ha, scale 0 to 100): 30
Plant response rating, Oilseed Rape [14, 23]: 60
Plant response rating, Oilseed Rape [14, 24]: 60
Plant response rating, Waterhemp [15]: 85
Plant response rating (scale of 0 to 100 where 0 is no effect and 100 is complete control), Kochia [16, 19]: 90
Kochia plant response rating [16, 20]: 90
Plant response rating, Kochia [16, 21]: 90
Plant response rating, Kochia [16, 22]: 90
Plant response rating, Velvetleaf [17]: 45
Plant response rating (scale of 0 to 100 where 0 is no effect and 100 is complete control), Chickweed [18, 19]: 75
Chickweed plant response rating [18, 20]: 75
Plant response rating, Chickweed [18, 21]: 90
Plant response rating, Chickweed [18, 22]: 90
